Laboratory results as given in US20260091082A1, “CYCLIC PEPTIDE DERIVATIVE COMPOSITION FOR TREATING OR PREVENTING EYE DISEASE” (DKS Co. Ltd., priority 2022, published 2026).
“And” between values parts separate entries of the source, which are not always exact repeats. Identical values can stand only once.

Legend:
[1] = General condition observation (clinical signs) in anterior chamber aqueous humor pressure load rat model; type: in vivo, Rat; Slc: SD; parameters: key: —: No anormal sign; conditions: 1 mg/mL eye drop, right eye, per animal
Experimental: (§1) • Species and strains: Rat; Slc: SD • Number of animals on arrival and sex: 50 males • Age in weeks at arrival: 6 weeks old • Body weight range at arrival: 147.2 to 170.0 g • Source: Japan SLC, Inc.
The body weight of the animals was measured at a frequency of once a week or more, and the general condition observation was performed every day.
(§2) • Administration route: Eyedrop administration, intravenous administration • Administration method (eyedrop): Eyedrop administration was performed on a treated eye (right eye) of a rat using a micropipette 4 times a day (at intervals of 1.5 hours or more). • Administration method (intravenous): The amount of administration solution, calculated from the body weight on the day of administration, was administered from the tail vein using a syringe and an injection needle about 30 minutes before ischemic load. • Time of administration: Administration was performed according to the following schedule.

[2] = system: anterior chamber aqueous humor pressure load rat model; assay: Retinal thickness (IPL, INL, ONL) in retinal damage model induced by anterior chamber aqueous humor pressure load; type: in vivo, Rat; Slc: SD; conditions: for Thickness of INL (μm) / Thickness of IPL (μm) / Thickness of ONL (μm): 14 days after model creation, mean ± S.E., 10 animals
Experimental: • Name: Compound 9 • Source: Synthesized in the above Examples • Used amount: 0.4 mL (50 mg/mL solution) • Storage conditions: Freezing, light shielding
Method for preparing test substance (1 mg/mL): A high concentration solution prepared at 50 mg/mL was diluted 50 times with a medium to prepare a 1 mg/mL administration solution.
• Name: MK-801 • Distributor: SIGMA-ALDRICH • Use amount: 0.0501 g • Storage condition: refrigerated (2° C. to 8° C.)
Method for preparing positive control substance (10 mg/mL): 0.0501 g was weighed out and made up to a total volume of 5 mL with a control substance (physiological saline).
as §1
Grouping was performed two days before the first creation of the retinal damage model induced by an anterior chamber aqueous humor pressure load. Using the daily body weight as an index, stratified random allocation was performed using SAS (Ver. 9.3, SAS Institute Japan Ltd.) and EXSUS (Ver. 8.0, CAC Croit Corporation) so that an average value of the body weights of each group was approximately uniform.
as §2
1. 10 mg/kg xylazine hydrochloride was intramuscularly administered on the model creation day (day 0). A rat was placed in an anesthesia box and subjected to general anesthesia with isoflurane (5%, oxygen:nitrous oxide=1:3). When anesthesia was effective, the rat was taken out of the anesthesia box, an inhalation anesthetic mask was worn, and anesthesia was maintained with isoflurane (1% to 5%, oxygen nitrous oxide=1:3).
2. The body temperature was maintained at 37° C. with a warming mat, and a mydrin P ophthalmic solution was instilled in the right eye (treated eye) of the rat to dilate the pupil, then the cravit ophthalmic solution 1.5% (Santen Pharmaceutical Co., Ltd.) was instilled.
3. A bottle of an IV bag containing physiological saline was previously suspended so that a water surface was 155 cm (100 mmHg or more) higher than the eye of the rat. The IV bag was connected to a pediatric infusion set (Terumo Corporation), a 27 G injection needle thereof was inserted into and fixed to the anterior chamber while slightly dripping the liquid from a needle tip. The model was created in the light phase (6:00 to 18:00) in consideration of the diurnal variation of the intraocular pressure.
4. After the needle was inserted into the anterior chamber, pressure (100 mmHg or more) was loaded and maintained in the anterior chamber by associating the reflux system.
5. After an ischemic load for 45 minutes, the injection needle and the like were removed, the inhalation anesthetic mask was removed, and the rat was sufficiently woken up under a warming mat, and then returned to the cage.
6. For 2 days after surgery, 10 mg/kg xylazine hydrochloride was intramuscularly administered as an analgesic for the purpose of alleviating the pain after the treatment.
1. Fourteen days after model creation, general anesthesia was performed with isoflurane (5%, oxygen:nitrous oxide=1:3), euthanasia was then performed by exsanguination, a suture was placed as a marker at the 12 o'clock position of the ocular conjunctiva, and eyeball enucleation was performed.
2. […]

[3] = 300 μm from optic disk, 1 mg/mL eye drop 4 times/day for 13 days from the day after model creation (test group 3)
[4] = 300 μm from optic disk, 1 mg/mL eye drop 4 times/day for 13 days from the day after model creation (test group 3), listed as compound 9
[5] = 300 μm from optic disk, (pre) 1 mg/mL eye drop 4 times/day on the 2 days before model creation (test group 2)
[6] = 300 μm from optic disk, (pre) 1 mg/mL eye drop 4 times/day on the 2 days before model creation (test group 2), listed as compound 9

CC[C@@]1(C)Oc2cc(ccc2O)C[C@H](NC)C(=O)N[C@@H](C(C)C)C(=O)N[C@@H]1C(=O)N[C@@H](CC(=O)O)C(=O)O [Compound 9]
Clinical signs ([1]; Day 0, animals 201-210 (test group 2, dosed on the 2 days before model creation)): —
Clinical signs ([1]; Day 0, animals 301-310 (test group 3, dosed 13 days from the day after model creation)): —
Clinical signs ([1]; Day 1, animals 201-210 (test group 2, dosed on the 2 days before model creation)): —
Clinical signs ([1]; Day 1, animals 301-310 (test group 3, dosed 13 days from the day after model creation)): —
Clinical signs ([1]; Day 2, animals 201-210 (test group 2, dosed on the 2 days before model creation)): —
Clinical signs ([1]; Day 2, animals 301-310 (test group 3, dosed 13 days from the day after model creation)): —
Clinical signs ([1]; Day 3, animals 201-210 (test group 2, dosed on the 2 days before model creation)): —
Clinical signs ([1]; Day 3, animals 301-310 (test group 3, dosed 13 days from the day after model creation)): —
Clinical signs ([1]; Day 4, animals 201-210 (test group 2, dosed on the 2 days before model creation)): —
Clinical signs ([1]; Day 4, animals 301-310 (test group 3, dosed 13 days from the day after model creation)): —
Clinical signs ([1]; Day 5, animals 201-210 (test group 2, dosed on the 2 days before model creation)): —
Clinical signs ([1]; Day 5, animals 301-310 (test group 3, dosed 13 days from the day after model creation)): —
Clinical signs ([1]; Day 6, animals 201-210 (test group 2, dosed on the 2 days before model creation)): —
Clinical signs ([1]; Day 6, animals 301-310 (test group 3, dosed 13 days from the day after model creation)): —
Clinical signs ([1]; Day −1, animals 201-210 (test group 2, dosed on the 2 days before model creation)): —
Clinical signs ([1]; Day −1, animals 301-310 (test group 3, dosed 13 days from the day after model creation)): —
Clinical signs ([1]; Day −2, animals 201-210 (test group 2, dosed on the 2 days before model creation)): —
Clinical signs ([1]; Day −2, animals 301-310 (test group 3, dosed 13 days from the day after model creation)): —
Thickness of INL (μm), Distance from Optic Disk 300 μm ([2]; 1 mg/mL eye drop (not pre), right eye, 300 μm from optic disk, individual measurements per animal): 27.268 μm and 29.194 μm and 27.960 μm and 26.601 μm and 24.843 μm (2×) and 25.835 μm and 20.052 μm and 21.030 μm and 18.618 μm and 25.039 μm and 27.705 μm and 29.211 μm and 23.276 μm and 30.228 μm and 28.329 μm (2×) and 29.740 μm (2×) and 27.292 μm and 28.168 μm and 41.632 μm and 38.927 μm and 48.313 μm and 31.260 μm and 35.869 μm and 37.963 μm and 31.090 μm and 28.954 μm and 30.909 μm
Thickness of IPL (μm), Distance from Optic Disk 300 μm ([2]; 1 mg/mL eye drop (not pre), right eye, 300 μm from optic disk, individual measurements per animal, listed as compond 9): 32.198 μm and 30.002 μm and 34.224 μm and 39.119 μm and 37.558 μm and 34.827 μm and 27.585 μm and 28.700 μm and 33.412 μm and 37.176 μm (3×) and 37.457 μm and 36.016 μm and 35.842 μm and 37.411 μm and 38.117 μm and 35.930 μm and 36.185 μm and 37.237 μm and 38.550 μm and 39.901 μm and 45.876 μm and 47.765 μm and 46.968 μm and 35.532 μm and 36.791 μm and 36.389 μm and 42.704 μm and 39.019 μm
Thickness of INL (μm), Distance from Optic Disk 300 μm, Mean ([2]; 1 mg/mL eye drop (not pre), right eye, 300 μm from optic disk, mean per animal): 28.141 μm and 25.760 μm and 19.900 μm and 25.862 μm and 27.572 μm and 28.454 μm and 28.746 μm and 42.957 μm and 35.031 μm and 30.318 μm
Thickness of IPL (μm), Distance from Optic Disk 300 μm, Mean ([2]; 1 mg/mL eye drop (not pre), right eye, 300 μm from optic disk, mean per animal, listed as compond 9): 32.141 μm and 37.168 μm and 29.899 μm and 36.883 μm and 36.810 μm and 36.744 μm and 38.563 μm and 46.870 μm and 36.237 μm and 39.633 μm
Thickness of INL (μm), Distance from Optic Disk 600 μm ([2]; 1 mg/mL eye drop (not pre), right eye, 600 μm from optic disk, individual measurements per animal): 24.738 μm and 26.582 μm and 31.689 μm and 28.581 μm and 25.207 μm and 26.625 μm and 29.576 μm and 28.954 μm and 37.237 μm and 34.673 μm and 26.256 μm and 29.926 μm and 35.484 μm and 34.715 μm and 36.694 μm and 38.253 μm and 32.381 μm and 33.458 μm and 33.871 μm and 36.611 μm and 27.419 μm and 34.733 μm and 25.544 μm and 26.908 μm and 37.411 μm and 29.937 μm and 35.493 μm and 34.034 μm and 32.419 μm and 29.046 μm
Thickness of IPL (μm), Distance from Optic Disk 600 μm ([2]; 1 mg/mL eye drop (not pre), right eye, 600 μm from optic disk, individual measurements per animal, listed as compond 9): 38.128 μm and 36.322 μm and 43.429 μm and 43.876 μm and 37.066 μm and 37.938 μm and 42.704 μm and 40.500 μm and 46.031 μm and 45.964 μm and 42.314 μm (2×) and 45.398 μm and 49.200 μm and 42.129 μm and 48.205 μm and 50.755 μm and 43.015 μm and 42.630 μm and 42.759 μm and 41.121 μm and 42.214 μm and 37.880 μm and 41.066 μm and 41.515 μm and 38.919 μm and 45.161 μm and 49.299 μm and 44.538 μm and 46.083 μm
Thickness of INL (μm), Distance from Optic Disk 600 μm, Mean ([2]; 1 mg/mL eye drop (not pre), right eye, 600 μm from optic disk, mean per animal): 26.246 μm and 31.668 μm and 25.792 μm and 28.479 μm and 36.440 μm and 28.706 μm and 35.231 μm and 36.327 μm and 32.753 μm and 33.176 μm
Thickness of IPL (μm), Distance from Optic Disk 600 μm, Mean ([2]; 1 mg/mL eye drop (not pre), right eye, 600 μm from optic disk, mean per animal, listed as compond 9): 38.524 μm and 43.173 μm and 37.628 μm and 41.423 μm and 44.503 μm and 42.210 μm and 45.497 μm and 49.420 μm and 43.394 μm and 43.719 μm
Thickness of INL (μm), Distance from Optic Disk 900 μm ([2]; 1 mg/mL eye drop (not pre), right eye, 900 μm from optic disk, individual measurements per animal): 23.463 μm and 23.821 μm and 26.168 μm and 31.627 μm and 31.452 μm and 31.822 μm and 18.956 μm and 25.938 μm and 21.867 μm and 22.952 μm and 23.718 μm and 22.465 μm and 26.601 μm and 27.289 μm and 29.587 μm and 30.400 μm and 26.367 μm and 26.057 μm and 35.226 μm and 33.688 μm and 33.919 μm and 36.066 μm and 40.039 μm and 42.383 μm and 29.394 μm and 29.751 μm and 27.773 μm and 29.233 μm and 27.808 μm and 25.454 μm
Thickness of IPL (μm), Distance from Optic Disk 900 μm ([2]; 1 mg/mL eye drop (not pre), right eye, 900 μm from optic disk, individual measurements per animal, listed as compond 9): 39.528 μm and 37.965 μm and 40.039 μm and 50.240 μm and 47.772 μm and 44.149 μm and 38.417 μm and 36.462 μm and 38.383 μm and 39.277 μm and 38.777 μm and 38.865 μm and 45.233 μm and 47.955 μm and 43.645 μm and 43.616 μm and 43.735 μm and 42.098 μm and 53.201 μm and 48.131 μm and 47.334 μm and 50.136 μm and 51.594 μm and 51.265 μm and 43.640 μm and 42.918 μm and 42.582 μm and 46.425 μm and 48.902 μm and 47.239 μm
Thickness of INL (μm), Distance from Optic Disk 900 μm, Mean ([2]; 1 mg/mL eye drop (not pre), right eye, 900 μm from optic disk, mean per animal): 24.484 μm and 31.634 μm and 22.254 μm and 23.045 μm and 27.826 μm and 27.608 μm and 34.278 μm and 39.496 μm and 28.973 μm and 27.498 μm
Thickness of IPL (μm), Distance from Optic Disk 900 μm, Mean ([2]; 1 mg/mL eye drop (not pre), right eye, 900 μm from optic disk, mean per animal, listed as compond 9): 39.177 μm and 47.387 μm and 37.754 μm and 38.973 μm and 45.611 μm and 43.150 μm and 49.555 μm and 50.998 μm and 43.047 μm and 47.522 μm
Thickness of INL (μm) [2, 3]: 29.27±1.94 μm
Thickness of IPL (μm) [2, 3]: 37.09±1.42 μm
Thickness of ONL (μm) [2, 3]: 42.79±2.60 μm
Thickness of INL (μm) [2, 4]: 29.27 ± 1.94 μm
Thickness of ONL (μm) [2, 4]: 42.79 ± 2.60 μm
Thickness of INL (μm) [2, 5]: 28.93±1.27 μm
Thickness of IPL (μm) [2, 5]: 31.31±0.93 μm
Thickness of ONL (μm) [2, 5]: 40.06±1.61 μm
Thickness of INL (μm) [2, 6]: 28.93 ± 1.27 μm
Thickness of ONL (μm) [2, 6]: 40.06 ± 1.61 μm
Thickness of INL (μm) ([2]; 600 μm from optic disk, 1 mg/mL eye drop 4 times/day for 13 days from the day after model creation (test group 3)): 31.48±1.26 μm
